Results as given in ChEMBL document CHEMBL1158836, “Cytotoxic sesquiterpenes from Aplysia dactylomela” (J Nat Prod, 2005).
Starred links: 1 amine or outer side, 2 acyl side, 3 side chain; linkers in the order of their positions; H or OH if unused. Positions of bridges follow the written chain, without caps; N, C: chain ends. Non-standard residues stand in square brackets, D forms with d. Residues, ends and D or L forms follow the SMILES beside them. Chains are numbered I, II in the order given. Actinocin(1to9) = Cc1c2oc3c(C)ccc(C(=O)[*:2])c3nc-2c(C(=O)[*:1])c(N)c1=O; NMeV = CN[C@H](C(=O)O)C(C)C; Sar = CNCC(=O)O

Experiments:
HeLa [1] = assay: Cytotoxicity against human HeLa cells in lag-phase after 48 hrs by MTT assay; type: functional, cell-based
HeLa [2] = assay: Cytotoxicity against human HeLa cells in log-phase after 48 hrs by MTT assay; type: functional, cell-based
HEp-2 [3] = assay: Cytotoxicity against human Hep2 cells in lag-phase after 48 hrs by MTT assay; type: functional, cell-based; conditions: HEp-2, 48 h
HEp-2 [4] = assay: Cytotoxicity against human Hep2 cells in log-phase after 48 hrs by MTT assay; type: functional, cell-based; conditions: HEp-2, 48 h
Vero [5] = assay: Cytotoxicity against african green monkey Vero cells in lag-phase after 48 hrs by MTT assay; type: cell-based; conditions: Chlorocebus sabaeus
Vero [6] = assay: Cytotoxicity against african green monkey Vero cells in log-phase after 48 hrs by MTT assay; type: cell-based; conditions: Chlorocebus sabaeus

| SMILES | IC50 (HeLa [1]) [µM] | IC50 (HeLa [2]) [µM] | IC50 (HEp-2 [3]) [µM] | IC50 (HEp-2 [4]) [µM] | IC50 (Vero [5]) [µM] | IC50 (Vero [6]) [µM] |
| --- | --- | --- | --- | --- | --- | --- |
| CC(=O)O[C@@H]1C[C@@H](Br)C(C)(C)O[C@]1(C)[C@H]1CC[C@](C)(Cl)[C@@H](Br)C1 | > 42 | > 42 | > 42 | > 42 | 31.9 | 33.6 |
| C=C1C[C@H](OC(C)=O)[C@H](Br)C(C)(C)[C@]12CC=C(C)CC2 [ACETYLDESCHLOROELATOL] | > 58 | > 58 | > 58 | > 58 | > 58 | > 58 |
| C=C1C[C@H](OC(C)=O)[C@H](Br)C(C)(C)[C@@]12CCC(C)=C(Cl)C2 [ACETYLELATOL] | 50.3 | 13.7 | 28 | 22.4 | > 53 | 44.6 |
| CC1(C)O[C@](C)([C@H]2CC[C@](C)(Cl)[C@@H](Br)C2)[C@H](O)C[C@H]1Br [CAESPITOL] | 26.9 | 30.6 | > 46 | > 46 | 25.5 | 25.8 |
| Cc1c2oc3c(C)ccc(C(=O)N[C@@H]4C(=O)N[C@H](C(C)C)C(=O)N5CCC[C@H]5C(=O)N(C)CC(=O)N(C)[C@@H](C(C)C)C(=O)O[C@@H]4C)c3nc-2c(C(=O)N[C@@H]2C(=O)N[C@H](C(C)C)C(=O)N3CCC[C@H]3C(=O)N(C)CC(=O)N(C)[C@@H](C(C)C)C(=O)O[C@@H]2C)c(N)c1=O [DACTINOMYCIN] (I: T[dV]P[Sar][NMeV] / II: T[dV]P[Sar][NMeV]; ester I:1-I:C, II:1-II:C; linker I:N-II:N via Actinocin(1to9)) | 0.011 | 0.001 | 0.191 | 0.006 | 0.071 | 0.001 |
| C=C1C[C@H](O)[C@H](Br)C(C)(C)[C@]12CC=C(C)CC2 [DESCHLOROELATOL] | > 67 | > 67 | > 67 | > 67 | > 67 | > 67 |
| C=C1C[C@H](O)[C@H](Br)C(C)(C)[C@@]12CCC(C)=C(Cl)C2 [ELATOL] | 4.1 | 1.3 | 2.4 | 2 | 2.3 | 25 |
